In patent US20160280699A1, “SUBSTITUTED PHENYLALANINE DERIVATIVES” (BAYER PHARMA AKTIENGESELLSCHAFT, priority 2013, published 2016):
Structures can show the parent of a compound that is named as a salt.

Legend:
Assay type in all cases: biochemical
human and animal plasma = test: Determination of anticoagulatory activity: activated partial thromboplastin time (aPTT) in plasma; settings: concentration of test substance which brings about a 1.5-fold extension of the aPTT, 37° C., C.K. Prest kit
Outline: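 Citrated human or animal plasma (e.g. mouse, rat, rabbit, pig, dog) preincubated 3 min at 37 °C with test substance and cephalin/kaolin PTT reagent. Value is the concentration giving a 1.5-fold aPTT extension.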

human plasmin = target: T1, human plasmin (Homo sapiens, UniProt P00747); test: Measurement of plasmin inhibition (fluorogenic peptide substrate MeOSuc-Ala-Phe-Lys-AMC); settings: plasmin from Kordia, 15 min preincubation, 30 min at 22° C., fluorescence
T1 construct: purchased Kordia
T1 sequence (P00747 581-810 limits assumed): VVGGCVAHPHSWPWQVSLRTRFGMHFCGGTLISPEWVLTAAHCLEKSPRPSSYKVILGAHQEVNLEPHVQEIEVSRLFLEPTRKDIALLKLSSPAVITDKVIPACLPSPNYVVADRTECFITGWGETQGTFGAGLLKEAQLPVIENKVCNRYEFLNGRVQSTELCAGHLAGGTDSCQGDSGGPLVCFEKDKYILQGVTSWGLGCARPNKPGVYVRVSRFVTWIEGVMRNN
T1 sequence (P00747 97-580 partner limits assumed): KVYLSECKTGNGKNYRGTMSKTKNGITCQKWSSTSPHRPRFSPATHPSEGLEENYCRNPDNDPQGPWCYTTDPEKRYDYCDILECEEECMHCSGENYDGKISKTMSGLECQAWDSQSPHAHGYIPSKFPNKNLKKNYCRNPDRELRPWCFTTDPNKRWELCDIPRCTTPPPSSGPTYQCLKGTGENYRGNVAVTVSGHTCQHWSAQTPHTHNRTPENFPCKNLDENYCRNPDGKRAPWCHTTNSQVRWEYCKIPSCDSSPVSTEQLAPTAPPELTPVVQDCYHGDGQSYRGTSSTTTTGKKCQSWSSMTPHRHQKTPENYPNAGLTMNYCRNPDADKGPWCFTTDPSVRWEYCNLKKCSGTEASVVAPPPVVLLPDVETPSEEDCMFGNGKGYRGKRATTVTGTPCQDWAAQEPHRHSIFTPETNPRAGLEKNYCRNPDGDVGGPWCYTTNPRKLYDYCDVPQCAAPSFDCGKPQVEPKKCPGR
Method: The plasmin inhibition of the inventive substances is determined using a biochemical test system which utilizes the reaction of a peptidic plasmin substrate to determine the enzymatic activity of human plasmin. Here, plasmin cleaves from the peptic plasmin substrate the C-terminal aminomethylcoumarin (AMC), the fluorescence of which is measured. The determinations are carried out in microtitre plates.
Test substances are dissolved in dimethyl sulphoxide and serially diluted in dimethyl sulphoxide (3000 μM to 0.0078 μM; resulting final concentrations in the test: 50 μM to 0.00013 μM). In each case 1 μl of the diluted substance solutions is placed into the wells of white microtitre plates from Greiner (384 wells). […] After 15 min of incubation, the enzyme reaction is started by addition of 20 μl of the plasmin substrate MeOSuc-Ala-Phe-Lys-AMC dissolved in assay buffer (150 μM in assay buffer) from Bachem, the mixture is incubated at room temperature (22° C.) for 30 min and fluorescence is then measured (excitation: 360 nm, emission: 460 nm). The measured emissions of the test batches with test substance are compared to those of control batches without test substance (only dimethyl sulphoxide instead of test substance in dimethyl sulphoxide), and IC50 values are calculated from the concentration/activity relationships.

human factor XIa = target: T2, human factor XIa (Homo sapiens, UniProt P03951); test: Measurement of FXIa inhibition (fluorogenic peptide substrate Boc-Glu(OBzl)-Ala-Arg-AMC); settings: factor XIa from Kordia, 15 min preincubation, 30 min at 22° C., fluorescence
T2 construct: purchased Kordia
T2 sequence (P03951 388-625 limits assumed): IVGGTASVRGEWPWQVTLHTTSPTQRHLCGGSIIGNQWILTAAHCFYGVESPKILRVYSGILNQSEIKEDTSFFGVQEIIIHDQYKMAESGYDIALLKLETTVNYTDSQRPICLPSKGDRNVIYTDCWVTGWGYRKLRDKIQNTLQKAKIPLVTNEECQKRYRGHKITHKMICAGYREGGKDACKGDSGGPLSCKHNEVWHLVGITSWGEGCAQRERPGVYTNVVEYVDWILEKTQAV
T2 sequence (P03951 19-387 partner limits assumed): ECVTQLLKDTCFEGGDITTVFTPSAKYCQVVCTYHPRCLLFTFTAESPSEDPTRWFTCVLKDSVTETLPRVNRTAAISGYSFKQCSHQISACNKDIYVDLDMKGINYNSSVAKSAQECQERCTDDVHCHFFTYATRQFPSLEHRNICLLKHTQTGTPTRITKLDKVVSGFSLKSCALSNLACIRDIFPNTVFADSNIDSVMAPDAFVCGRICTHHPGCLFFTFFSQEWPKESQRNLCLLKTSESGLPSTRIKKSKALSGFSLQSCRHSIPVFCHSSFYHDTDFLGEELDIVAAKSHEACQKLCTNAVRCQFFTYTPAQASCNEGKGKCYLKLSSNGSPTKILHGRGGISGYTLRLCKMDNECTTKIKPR

**Q.** `CC1CN(c2ccc(-c3ccc(C[C@H](NC(=O)C4CCC(CN)CC4)C(=O)Nc4ccc(-c5nn[nH]n5)cc4)cc3)cn2)CC(C)O1` (mixture of isomers) [Example 9, N-alpha-{[trans-4-(Aminomethyl)cyclohexyl]carbonyl}-4-{6-[(2RS,6SR)-2,6-dimethylmorpholin-4-yl]pyridin-3-yl}-N-[4-(2H-tetrazol-5-yl)phenyl]-L-phenylalaninamide hydrochloride] was tested. Which “aPTT” value (human and animal plasma) did it give?
**A.** 0.35 µmol/L

**Q.** What about the IC50 (human plasmin) of the same compound?
**A.** 14 nM

**Q.** What about the IC50 (human factor XIa) of the same compound?
**A.** 3.6 nM

**Q.** Which “aPTT” value (human and animal plasma) does the source give for `CCOC(=O)c1ccc(-c2ccc(C[C@H](NC(=O)[C@H]3CC[C@H](CN)CC3)C(=O)Nc3ccc(-c4nn[nH]n4)cc3)cc2)c(C)n1` [Example 58, Ethyl 5-{4-[(2S)-2-({[trans-4-(aminomethyl)cyclohexyl]carbonyl}amino)-3-oxo-3-{[4-(2H-tetrazol-5-yl)phenyl]amino}propyl]phenyl}-6-methylpyridin-2-carboxylate hydrochloride] here?
**A.** 0.34 µmol/L

**Q.** What about the IC50 (human plasmin) of the same compound?
**A.** 8.6 nM

**Q.** And the IC50 (human factor XIa)?
**A.** 0.8 nM

**Q.** How did the “aPTT” value (human and animal plasma) turn out when `NC[C@H]1CC[C@H](C(=O)N[C@@H](Cc2ccc(-c3ccncc3)cc2)C(=O)Nc2ccc(-c3nn[nH]n3)cc2)CC1` [Example 11, N-alpha-{[trans-4-(Aminomethyl)cyclohexyl]carbonyl}-4-pyridin-4-yl-N-[4-(2H-tetrazol-5-yl)phenyl]-L-phenylalaninamide hydrochloride] was run?
**A.** 0.24 µmol/L

**Q.** What about the IC50 (human factor XIa) of the same compound?
**A.** 5.2 nM

**Q.** Which results are given for `NC[C@H]1CC[C@H](C(=O)N[C@@H](Cc2ccc(-c3ccc(N4CCOCC4)nc3)cc2)C(=O)Nc2ccc3c(=O)[nH][nH]c3c2)CC1` [Example 24, N-alpha-{[trans-4-(Aminomethyl)cyclohexyl]carbonyl}-4-[6-(morpholin-4-yl)pyridin-3-yl]-N-(3-oxo-2,3-dihydro-1H-indazol-6-yl)-L-phenylalaninamide hydrochloride]?
**A.** aPTT (human and animal plasma): 0.18 µmol/L; IC50 (human factor XIa): 3.1 nM

**Q.** With `COc1cnccc1-c1ccc(C[C@H](NC(=O)[C@H]2CC[C@H](CN)CC2)C(=O)Nc2ccc(-c3nn[nH]n3)cc2)cc1` [Example 20, N-alpha-{[trans-4-(Aminomethyl)cyclohexyl]carbonyl}-4-(3-methoxypyridin-4-yl)-N-[4-(2H-tetrazol-5-yl)phenyl]-L-phenylalaninamide hydrochloride] as the compound, how does the “aPTT” value (human and animal plasma) read?
**A.** 0.22 µmol/L

**Q.** And the IC50 (human factor XIa)?
**A.** 3.8 nM

**Q.** `NC[C@H]1CC[C@H](C(=O)N[C@@H](Cc2ccc(-c3ccc(Oc4cccnc4)nc3)cc2)C(=O)Nc2ccc(-c3nn[nH]n3)cc2)CC1` [Example 32, N-alpha-{[trans-4-(Aminomethyl)cyclohexyl]carbonyl}-4-[6-(pyridin-3-yloxy)pyridin-3-yl]-N-[4-(2H-tetrazol-5-yl)phenyl]-L-phenylalaninamide hydrochloride] was tested. Which “aPTT” value (human and animal plasma) did it give?
**A.** 0.3 µmol/L

**Q.** What about the IC50 (human factor XIa) of the same compound?
**A.** 2.4 nM

**Q.** What does the source list for `NC[C@H]1CC[C@H](C(=O)N[C@@H](Cc2ccc(-c3ccc(N4CCOCC4)nc3)c(F)c2)C(=O)Nc2ccc(-c3nn[nH]n3)cc2)CC1` [Example 44, N-alpha-{[trans-4-(Aminomethyl)cyclohexyl]carbonyl}-3-fluoro-4-[6-(morpholin-4-yl)pyridin-3-yl]-N-[4-(2H-tetrazol-5-yl)phenyl]-L-phenylalaninamide hydrochloride]?
**A.** aPTT (human and animal plasma): 0.22 µmol/L; IC50 (human factor XIa): 2 nM

**Q.** What does the source list for `NC[C@H]1CC[C@H](C(=O)N[C@@H](Cc2ccc(-c3cncc(S(=O)(=O)NC4CCNCC4)c3)cc2)C(=O)Nc2ccc(-c3nnn[nH]3)cc2)CC1` [Example 52, N-alpha-{[trans-4-(Aminomethyl)cyclohexyl]carbonyl}-4-[5-(piperidin-4-ylsulphamoyl)pyridin-3-yl]-N-[4-(1H-tetrazol-5-yl)phenyl]-L-phenylalaninamide hydrochloride]?
**A.** aPTT (human and animal plasma): 0.21 µmol/L; IC50 (human factor XIa): 6.9 nM

**Q.** Which “aPTT” value (human and animal plasma) does the source give for `NC[C@H]1CC[C@H](C(=O)N[C@@H](Cc2ccc(-c3cccnc3O)cc2)C(=O)Nc2ccc(-c3nn[nH]n3)cc2)CC1` [Example 37, N-alpha-{[trans-4-(Aminomethyl)cyclohexyl]carbonyl}-4-(2-hydroxypyridin-3-yl)-N-[4-(2H-tetrazol-5-yl)phenyl]-L-phenylalaninamide hydrochloride] here?
**A.** 0.26 µmol/L

**Q.** And the IC50 (human factor XIa)?
**A.** 5.3 nM

**Q.** With `NC[C@H]1CC[C@H](C(=O)N[C@@H](Cc2ccc(-c3ccc(N4CCOCC4)nc3)cc2)C(=O)Nc2ccc(-c3cc(=O)[nH][nH]3)cc2)CC1` [Example 34, N-alpha-{[trans-4-(Aminomethyl)cyclohexyl]carbonyl}-4-[6-(morpholin-4-yl)pyridin-3-yl]-N-[4-(5-oxo-2,5-dihydro-1H-pyrazol-3-yl)phenyl]-L-phenylalaninamide hydrochloride] as the compound, how does the “aPTT” value (human and animal plasma) read?
**A.** 0.14 µmol/L

**Q.** What about the IC50 (human factor XIa) of the same compound?
**A.** 5.4 nM

**Q.** Which results are given for `CN1CCN(c2ccc(-c3ccc(C[C@H](NC(=O)C4CCC(CN)CC4)C(=O)Nc4ccc(-c5nnn[nH]5)cc4)cc3)cn2)CC1` (stereo partly drawn) [Example 54, N-alpha-{[trans-4-(Aminomethyl)cyclohexyl]carbonyl}-4-[6-(4-methylpiperazin-1-yl)pyridin-3-yl]-N-[4-(1H-tetrazol-5-yl)phenyl]-L-phenylalaninamide hydrochloride]?
**A.** aPTT (human and animal plasma): 0.21 µmol/L; IC50 (human factor XIa): 7.2 nM

**Q.** With `NC[C@H]1CC[C@H](C(=O)N[C@@H](Cc2ccc(-c3cncc(N)c3)cc2)C(=O)Nc2ccc(-c3nnn[nH]3)cc2)CC1` [Example 49, N-alpha-{[trans-4-(Aminomethyl)cyclohexyl]carbonyl}-4-(5-aminopyridin-3-yl)-N-[4-(1H-tetrazol-5-yl)phenyl]-L-phenylalaninamide hydrochloride] as the compound, how does the “aPTT” value (human and animal plasma) read?
**A.** 0.14 µmol/L

**Q.** And the IC50 (human factor XIa)?
**A.** 3.2 nM

**Q.** For `Cc1nc(N)ccc1-c1ccc(C[C@H](NC(=O)[C@H]2CC[C@H](CN)CC2)C(=O)Nc2ccc(-c3nnn[nH]3)cc2)cc1` [Example 51, N-alpha-{[trans-4-(Aminomethyl)cyclohexyl]carbonyl}-4-(6-amino-2-methylpyridin-3-yl)-N-[4-(1H-tetrazol-5-yl)phenyl]-L-phenylalaninamide hydrochloride], which “aPTT” value (human and animal plasma) is on record?
**A.** 0.19 µmol/L

**Q.** What about the IC50 (human factor XIa) of the same compound?
**A.** 3.7 nM

**Q.** For `NC[C@H]1CC[C@H](C(=O)N[C@@H](Cc2ccc(-c3ccncc3)cc2)C(=O)Nc2ccc(-c3noc(=O)[nH]3)cc2)CC1` [Example 8, N-alpha-{[trans-4-(Aminomethyl)cyclohexyl]carbonyl}-N-[4-(5-oxo-4,5-dihydro-1,2,4-oxadiazol-3-yl)phenyl]-4-pyridin-4-yl-L-phenylalaninamide hydrochloride], which “aPTT” value (human and animal plasma) is on record?
**A.** 0.15 µmol/L

**Q.** And the IC50 (human factor XIa)?
**A.** 9.2 nM

**Q.** What does the source list for `Cc1cc(N2CCNCC2)ncc1-c1ccc(C[C@H](NC(=O)[C@H]2CC[C@H](CN)CC2)C(=O)Nc2ccc(-c3nn[nH]n3)c(F)c2)cc1` [Example 47, N-alpha-{[trans-4-(Aminomethyl)cyclohexyl]carbonyl}-N-[3-fluoro-4-(2H-tetrazol-5-yl)phenyl]-4-[4-methyl-6-(piperazin-1-yl)pyridin-3-yl]-L-phenylalaninamide hydrochloride]?
**A.** aPTT (human and animal plasma): 0.08 µmol/L; IC50 (human factor XIa): 1.1 nM
